Values of other authors in patent publication US6723337B1, “Transdermal drug delivery system for anti-inflammatory analgesic agent comprising diclofenac diethylammonium salt, and the manufacturing method thereof” (Samyang Corporation, priority 1997, dated 2004).

Settings: composition comprising hydroxy ethyl pyrrolidone or hydroxy ethyl piperidine as absorption enhancer

- transdermal penetration of the accumulated diclofenac: 180 μg/cm^2·day
Compound: O=C(O)Cc1ccccc1Nc1c(Cl)cccc1Cl [diclofenac]
